Laboratory results published in PubChem BioAssay (NCI).
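All cell lines were grown in 96-well plates and treated with compound for 48 hours. The concentration for 50% growth inhibition is given as GI50. TGI is the concentration that stops growth completely.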

Tests used:
Experiment in all cases: NCI anticancer screen, dose series, 48 h
[1] = system: 786-0 renal
[2] = system: A498 renal
[3] = system: A549 NSCLC
[4] = system: ACHN renal
[5] = system: BT-549 breast
[6] = system: CAKI-1 renal
[7] = system: CCRF-CEM leukemia
[8] = system: COLO 205 colon
[9] = system: DU-145 prostate
[10] = system: EKVX NSCLC
[11] = system: HCC-2998 colon
[12] = system: HCT-116 colon
[13] = system: HCT-15 colon
[14] = system: HL-60(TB) leukemia
[15] = system: HOP-62 NSCLC
[16] = system: HOP-92 NSCLC
[17] = system: HS 578T breast
[18] = system: HT29 colon
[19] = system: IGROV1 ovarian
[20] = system: K-562 leukemia
[21] = system: KM12 colon
[22] = system: LOX IMVI melanoma
[23] = system: M14 melanoma
[24] = system: MALME-3M melanoma
[25] = system: MCF7 breast
[26] = system: MDA-MB-231 breast
[27] = system: MDA-MB-435
[28] = system: MDA-MB-468 breast
[29] = system: MOLT-4 leukemia
[30] = system: NCI-H226 lung
[31] = system: NCI-H23 lung
[32] = system: NCI-H460 lung
[33] = system: NCI-H522 lung
[34] = system: NCI/ADR-RES ovarian
[35] = system: OVCAR-3 ovarian
[36] = system: OVCAR-4 ovarian
[37] = system: OVCAR-5 ovarian
[38] = system: OVCAR-8 ovarian
[39] = system: PC-3 prostate
[40] = system: RPMI-8226 leukemia
[41] = system: RXF 393 renal
[42] = system: SF-268 CNS
[43] = system: SF-295 CNS
[44] = system: SF-539 CNS
[45] = system: SK-MEL-2 melanoma
[46] = system: SK-MEL-28 melanoma
[47] = system: SK-MEL-5 melanoma
[48] = system: SK-OV-3 ovarian
[49] = system: SN12C renal
[50] = system: SNB-19 CNS
[51] = system: SNB-75 CNS
[52] = system: SW-620 colon
[53] = system: T-47D breast
[54] = system: TK-10 renal
[55] = system: U251 CNS
[56] = system: UACC-257 melanoma
[57] = system: UACC-62 melanoma
[58] = system: UO-31 renal

## FC(F)(F)CN1CCN(CCn2c(C(F)(F)F)cc3c(Cl)ncnc32)CC1
[1]
  GI50: 22.3 µM
  TGI: 60.7 µM
[2]
  GI50: 21.3 µM
  TGI: 57.4 µM
[3]
  GI50: 52.9 µM
  TGI: > 100 µM
[4]
  GI50: 12.3 µM
  TGI: > 100 µM
[5]
  GI50: 13 µM
  TGI: 26.8 µM
[6]
  GI50: 13.6 µM
  TGI: 30.6 µM
[7]
  GI50: 4.37 µM
  TGI: > 100 µM
[8]
  GI50: 18.4 µM
  TGI: 46.2 µM
[9]
  GI50: 12.5 µM
  TGI: 32.8 µM
[10]
  GI50: 11.6 µM
  TGI: 40.4 µM
[11]
  GI50: 1.83 µM
  TGI: 3.28 µM
[12]
  GI50: 3.16 µM
  TGI: 13.3 µM
[13]
  GI50: 2.55 µM
  TGI: 7.37 µM
[14]
  GI50: 2.75 µM
  TGI: 8.18 µM
[15]
  GI50: 13.8 µM
  TGI: 32.5 µM
[16]
  GI50: 12.9 µM
  TGI: 29.2 µM
[17]
  GI50: 14.2 µM
  TGI: 59.8 µM
[18]
  GI50: 5.46 µM
  TGI: 36.6 µM
[19]
  GI50: 1.78 µM
  TGI: 3.54 µM
[20]
  GI50: 2.8 µM
  TGI: > 100 µM
[21]
  GI50: 17.9 µM
  TGI: 39.9 µM
[22]
  GI50: 1.68 µM
  TGI: 3.1 µM
[23]
  GI50: 6.19 µM
  TGI: 23.1 µM
[24]
  GI50: 14.5 µM
  TGI: 32 µM
[25]
  GI50: 10 µM
  TGI: 42.6 µM
[26]
  GI50: 1.76 µM
  TGI: 4.28 µM
[27]
  GI50: 5.5 µM
  TGI: 19.5 µM
[28]
  GI50: 2.19 µM
  TGI: 4.94 µM
[29]
  GI50: 2.4 µM
  TGI: 9.2 µM
[30]
  GI50: 17.4 µM
  TGI: 72.8 µM
[31]
  GI50: 5.84 µM
  TGI: 26.6 µM
[32]
  GI50: 2.66 µM
  TGI: 6.73 µM
[33]
  GI50: 1.7 µM
  TGI: 3.52 µM
[34]
  GI50: 19 µM
  TGI: 46.6 µM
[35]
  GI50: 14.3 µM
  TGI: 34.4 µM
[36]
  GI50: 26.8 µM
  TGI: > 100 µM
[37]
  GI50: > 100 µM
  TGI: > 100 µM
[38]
  GI50: 3.2 µM
  TGI: 11.7 µM
[39]
  GI50: 3.53 µM
  TGI: 12 µM
[40]
  GI50: 23.7 µM
  TGI: 77.4 µM
[41]
  GI50: 11 µM
  TGI: 28.1 µM
[42]
  GI50: 5.2 µM
  TGI: 21.4 µM
[43]
  GI50: 10.3 µM
  TGI: 25.9 µM
[44]
  GI50: 12.6 µM
  TGI: 28.7 µM
[45]
  GI50: 15.7 µM
  TGI: 30.9 µM
[46]
  GI50: 8.13 µM
  TGI: 37.4 µM
[47]
  GI50: 3.73 µM
  TGI: 13.7 µM
[48]
  GI50: 16.2 µM
  TGI: 43.2 µM
[49]
  GI50: 7.75 µM
  TGI: 23.1 µM
[50]
  GI50: 13.2 µM
  TGI: 26.8 µM
[51]
  GI50: 3.11 µM
  TGI: 14.2 µM
[52]
  GI50: 4.86 µM
  TGI: 19.5 µM
[53]
  GI50: 17.3 µM
  TGI: 63.7 µM
[54]
  GI50: 35.5 µM
  TGI: > 100 µM
[55]
  GI50: 2.4 µM
  TGI: 6.43 µM
[56]
  GI50: 4.09 µM
  TGI: 16.9 µM
[57]
  GI50: 4.69 µM
  TGI: 18.1 µM
[58]
  GI50: 1.63 µM
  TGI: 3.27 µM
